According to article PMC5524698, “A cell-based, quantitative and isoform-specific assay for exchange proteins directly activated by cAMP” (Scientific Reports, 2017):

Experiments:
[1] = target: T1, EPAC2 (Mus musculus, UniProt Q9EQZ6); test: Cellular Rap1 assay (ELISA for Rap1-GTP) in HEK293/mEPAC2/Flag-Rap1 cells; assay type: cell-based
T1 construct: HEK293 cell lines stably expressing Flag-tagged Rap1A and full-length EPAC1 or EPAC2 are proposed; expressed in transfected cells
T1 sequence (Q9EQZ6 1-1011): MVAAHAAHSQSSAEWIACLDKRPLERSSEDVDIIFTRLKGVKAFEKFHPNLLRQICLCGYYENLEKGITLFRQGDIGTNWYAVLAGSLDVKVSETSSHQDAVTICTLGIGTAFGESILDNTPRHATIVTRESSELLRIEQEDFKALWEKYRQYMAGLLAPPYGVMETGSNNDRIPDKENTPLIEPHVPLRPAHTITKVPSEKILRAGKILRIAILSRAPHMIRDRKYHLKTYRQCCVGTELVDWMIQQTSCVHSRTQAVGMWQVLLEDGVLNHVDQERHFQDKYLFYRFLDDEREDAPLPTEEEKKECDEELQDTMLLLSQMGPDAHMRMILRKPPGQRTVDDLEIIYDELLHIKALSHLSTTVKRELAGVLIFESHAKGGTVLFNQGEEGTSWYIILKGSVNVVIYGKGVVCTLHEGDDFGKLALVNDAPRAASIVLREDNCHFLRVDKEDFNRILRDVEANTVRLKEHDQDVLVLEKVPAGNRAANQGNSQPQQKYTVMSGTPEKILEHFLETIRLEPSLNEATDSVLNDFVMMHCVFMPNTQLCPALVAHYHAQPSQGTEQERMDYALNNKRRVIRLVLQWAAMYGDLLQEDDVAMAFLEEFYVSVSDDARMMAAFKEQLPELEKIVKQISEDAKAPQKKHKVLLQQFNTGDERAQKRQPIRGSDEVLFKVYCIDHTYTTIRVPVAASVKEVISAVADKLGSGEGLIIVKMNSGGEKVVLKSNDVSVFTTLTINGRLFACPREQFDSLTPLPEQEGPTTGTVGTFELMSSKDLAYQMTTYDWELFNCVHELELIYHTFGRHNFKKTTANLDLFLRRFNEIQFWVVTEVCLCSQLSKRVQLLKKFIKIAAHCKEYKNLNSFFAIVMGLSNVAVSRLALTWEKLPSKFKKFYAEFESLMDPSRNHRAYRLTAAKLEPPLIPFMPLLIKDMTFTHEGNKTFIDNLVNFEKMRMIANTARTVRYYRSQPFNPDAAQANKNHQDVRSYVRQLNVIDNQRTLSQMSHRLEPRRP
Procedure: HEK293 cells co-expressing hEPAC1/Flag-tagged hRap1A or mEPAC2/Flag-tagged hRap1A were seeded in 12-well plates (Corning #3513) at an initial confluency of 400,000 cell/well and incubate at 37 °C, 5% CO2, in MEM medium with 10% FBS, for 24 hours. Cells were then rinsed with HBSS and cultured in FBS-free MEM medium for another 16 hours. If necessary cells were first pretreated with various concentration of antagonists or vehicle at 37 °C for 30 min. Otherwise, the cells were stimulated with various concentrations of agonists or vehicle controls at 37 °C for 10 min, then immediately rinsed with ice-cold PBS and lysed in 500 µl ice-cold lysis buffer containing 20 mM Tris-HCl, pH 7.4, 150 mM NaCl, 10 mM MgCl2, 1% IGEPAL CA-630 and proteinase inhibitors cocktail. Cell extracts were clarified by centrifugation at 18,000 RCF for 20 min and their protein concentrations were determined by DC protein assay kit. […] 200 µl of OPD substrate was added into each well and absorbance signal at 450 nm was monitored using an M2 microplate reader (Molecular Devices) for 30 min with 1-min intervals. 10-min data points were used for quantification.

[2] = target: T2, EPAC1 (Homo sapiens, UniProt O95398); test: Cellular Rap1 assay (ELISA for Rap1-GTP) in HEK293/hEPAC1/Flag-Rap1 cells; assay type: cell-based; conditions: for AC50: 10 min stimulation, read-out: apparent half maximal activation constant (AC50), Rap1-GTP levels
T2 construct: HEK293 cell lines stably expressing Flag-tagged Rap1A and full-length EPAC1 or EPAC2 are proposed; expressed in transfected cells
T2 sequence (O95398 1-923): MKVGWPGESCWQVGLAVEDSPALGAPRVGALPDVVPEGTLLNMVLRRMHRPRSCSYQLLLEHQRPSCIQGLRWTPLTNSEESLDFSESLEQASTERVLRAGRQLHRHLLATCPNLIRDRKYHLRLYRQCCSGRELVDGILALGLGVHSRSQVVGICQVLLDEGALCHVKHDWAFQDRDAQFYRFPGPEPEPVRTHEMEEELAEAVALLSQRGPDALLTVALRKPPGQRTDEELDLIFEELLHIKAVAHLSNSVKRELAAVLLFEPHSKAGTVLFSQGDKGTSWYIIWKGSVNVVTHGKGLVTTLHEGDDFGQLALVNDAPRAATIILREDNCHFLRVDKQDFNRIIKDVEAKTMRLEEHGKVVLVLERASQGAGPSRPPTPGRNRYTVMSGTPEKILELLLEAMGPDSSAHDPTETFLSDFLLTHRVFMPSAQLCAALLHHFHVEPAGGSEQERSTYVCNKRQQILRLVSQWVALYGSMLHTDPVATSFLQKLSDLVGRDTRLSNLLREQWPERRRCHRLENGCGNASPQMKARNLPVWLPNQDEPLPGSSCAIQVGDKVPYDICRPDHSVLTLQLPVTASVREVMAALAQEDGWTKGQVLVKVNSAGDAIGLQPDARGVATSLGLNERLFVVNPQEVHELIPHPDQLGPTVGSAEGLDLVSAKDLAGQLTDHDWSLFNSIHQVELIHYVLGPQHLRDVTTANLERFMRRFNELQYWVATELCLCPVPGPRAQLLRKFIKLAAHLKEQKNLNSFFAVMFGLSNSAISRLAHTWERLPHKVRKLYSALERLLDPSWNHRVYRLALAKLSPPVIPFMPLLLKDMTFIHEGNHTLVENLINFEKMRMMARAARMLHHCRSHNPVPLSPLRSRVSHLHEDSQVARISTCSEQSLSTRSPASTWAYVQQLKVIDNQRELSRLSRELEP
Text: To develop a cell-based, isoform-specific EPAC activation assay, HEK293 cell lines stably expressing Flag-tagged Rap1A and full-length EPAC1 or EPAC2 are proposed. HEK293 cells express minimal endogenous levels of EPAC1 and EPAC2 and have been used as host cells for evaluating the cellular activities of ectopically expressed EPAC proteins in an isoform-specific manner. Activation of EPAC1 or EPAC2 in these cell lines by cAMP elevating agents leads to the accumulation of Flag-Rap1-GTP, which can be captured by RalGDS-RBD immobilized in a nickel-coated 96-well microplate. The levels of active Flag-Rap1-GTP protein can be quantitatively monitored using a specific anti-FLAG antibody and a HRP conjugated secondary antibody in a manner similar to that of a conventional ELISA assay (Fig. 1).
HEK293 (ATCC) cells were grown in MEM medium supplemented with 10% heat-inactivated FBS (Invitrogen), at 37 °C, 5% CO2. HEK293 stable cell lines expressing Flag-tagged human Rap1A (Flag-hRap1A) alone and co-expressing human EPAC1 (hEPAC1) and Flag-hRap1A or mouse EPAC2 (mEPAC2) and Flag-hRap1A were established by sequential transfections using Lipofectamine 2000 reagent (Invitrogen) with mammalian expression vectors, first with pIRES2-EGFP containing Flag-hRap1A and followed by pIRES‐hyg2 containing hEPAC1 or mEPAC2. Individual stable cell clones were selected and maintained in MEM containing 500 µg/ml G418 for pIRES2-EGFP and 100 µg/ml hygromycin B for pIRES‐hyg2, respectively.
HEK293 cells co-expressing hEPAC1/Flag-tagged hRap1A or mEPAC2/Flag-tagged hRap1A were seeded in 12-well plates (Corning #3513) at an initial confluency of 400,000 cell/well and incubate at 37 °C, 5% CO2, in MEM medium with 10% FBS, for 24 hours. Cells were then rinsed with HBSS and cultured in FBS-free MEM medium for another 16 hours. If necessary cells were first pretreated with various concentration of antagonists or vehicle at 37 °C for 30 min. Otherwise, the cells were stimulated with various concentrations of agonists or vehicle controls at 37 °C for 10 min, then immediately rinsed with ice-cold PBS and lysed in 500 µl ice-cold lysis buffer containing 20 mM Tris-HCl, pH 7.4, 150 mM NaCl, 10 mM MgCl2, 1% IGEPAL CA-630 and proteinase inhibitors cocktail. Cell extracts were clarified by centrifugation at 18,000 RCF for 20 min and their protein concentrations were determined by DC protein assay kit. 100 µl of properly diluted cell lysates containing 0 to 50 µg total proteins were added to nickel coated 96-well plate strips that were pre-coated with 200 µg of RalGDS-RBD-His6 proteins and incubated at 4 °C for 2 hours with gentle rocking. After washing with 100 µl ice-cold ELISA buffer (20 mM Tris-HCl, pH 7.4, 150 mM NaCl, 10 mM MgCl2 and 0.1% Tween-20) for 3 times, 100 µl mouse anti-Flag antibody (1:5000 in ELISA buffer) was added into each well and incubated at 4 °C for 1 hour with gentle shaking. Following three washes with 100 µl ice-cold ELISA buffer, 100 µl anti-mouse HRP-conjugated antibodies (1:3000 in ELISA buffer) were added into each well. After incubation at room temperature for 1 hour with gentle shaking, the wells were washed three times with 100 µl ELISA buffer. 200 µl of OPD substrate was added into each well and absorbance signal at 450 nm was monitored using an M2 microplate reader (Molecular Devices) for 30 min with 1-min intervals. 10-min data points were used for quantification.

[3] = system: EPAC2; design: method as in PMID 23091014, PMID 23286832; conditions: in the presence of 20 µM cAMP; selective for EPAC2, not EPAC1; cited from earlier work
[4] = target: T2, EPAC1; test: Conventional affinity pull-down assay of Rap1-GTP using GST-RalGDS-RBD, immunoblot; assay type: cell-based; conditions: HEK293/hEPAC1/Flag-Rap1 cells, various concentrations
Text: Forskolin is a labdane diterpene natural product, commonly used a biochemical tool to stimulate intracellular levels of cAMP[31]. Treatment of HEK293/hEPAC1/Flag-Rap1 or HEK293/mEPAC2/ Flag-Rap1 cells with forskolin led to a dose-dependent increase in Rap1-GTP levels in both cell lines (Fig. 3A,B). […] Since forskolin-mediated increase in intracellular cAMP activates both EPAC and PKA, to ensure that the signals observed in our assay were not in part due to the activation of PKA, control experiments in the presence of a PKA-specific inhibitor, H89, were performed.
Figure S1. Dose-dependent cellular activation of EPAC1 by forskolin. Relative Rap1-GTP levels, as monitored by affinity pull-down assay using GST-RalGDS-RBD, in HEK293 cells overexpressing EPAC1 stimulated by various concentrations of forskolin. Inset: representative immunoblot image of Rap1-GTP levels under basal and forskolin-stimulated conditions.

In the case of `CO[C@@H]1[C@@H]2OP(=O)(OCOC(C)=O)OC[C@H]2O[C@H]1n1c(Sc2ccc(Cl)cc2)nc2c(N)ncnc21` (stereo partly shown) [007-AM, 8-pCPT-2-O-Me-cAMP-AM], the “dose-dependent activation of EPAC2 (Rap1-GTP levels)” value ([1]; up to 10 µM) is reported as “did not reach plateau” and the AC50 ([2]; HEK293/hEPAC1/Flag-Rap1 cells) is reported as 16.5 ± 3.1 nM.
In the case of `Cc1ccc(S(=O)(=O)c2c(C)cc(C)cc2C)cc1` [ESI-05], the “inhibition of cellular EPAC1 activation” value ([2]; stimulated by 1 µM Forskolin, HEK293/hEPAC1/Flag-Rap1 cells) is listed as “no detectable activity” and the “potency of EPAC2 inhibition” value [3] is listed as “sub-micromolar”.
For `C=C[C@@]1(C)CC(=O)[C@]2(O)[C@@]3(C)[C@@H](O)CCC(C)(C)[C@@H]3[C@H](O)[C@H](OC(C)=O)[C@@]2(C)O1` [Forskolin], the AC50 ([1]; 10 min stimulation, read-out: apparent half maximal activation constant (AC50), Rap1-GTP levels) was 137 ± 36 nM, the “activation of Rap1 (relative Rap1-GTP levels, pull-down)” value [4] was “dose-dependent activation” and the AC50 ([2]; HEK293/hEPAC1/Flag-Rap1 cells) was 226 ± 57 nM.
With `O=S(=O)(NCCNC/C=C/c1ccc(Br)cc1)c1cccc2cnccc12` [H89] the “effects on basal and forskolin-induced Rap1 activities” value ([2]; 10 µM H89, HEK293 cells overexpressing EPAC1 (Fig. S2)) was “minimal”.
For `CC(C)(C)c1cc(C(=O)/C(C#N)=N/Nc2cc(Cl)c(Cl)c(Cl)c2)no1` [NY-0123], the IC50 ([1]; stimulated by 1 µM Forskolin, 30 min pretreatment, read-out: apparent IC50, inhibition of cellular EPAC2 activity) was 9600 ± 1600 nM and the IC50 ([2]; stimulated by 1 µM Forskolin, 30 min pretreatment, HEK293/hEPAC1/Flag-Rap1 cells, read-out: apparent IC50, inhibition of cellular EPAC1 activity) was 4900 ± 600 nM.
